Measurements: patent US6610689B2, “HIV protease inhibitors based on amino acid derivatives” (priority 2001, dated 2003)
Where two headings read alike, the source gives them in different places.

Biological target: T1, HIV protease (Human immunodeficiency virus type 1 group M subtype B, UniProt P04585)
T1 construct: A third viral enzyme known as protease then cleaves the polyproteins
Experiment: Enzymatic Assay for Determining the Inhibition Constant (Ki) of Synthetic Compounds Targeting the HIV Protease (fluorometric FRET assay)
Format: biochemical
Source text: Enzymatic Assay for Determining the Inhibition Constant (Ki) of Synthetic Compounds Targeting the HIV Protease
This is a fluorometric assay based on the cleavage by protease of a substrate carrying a donor group (EDANS) and an acceptor group (DABCYL) on each side of the cleavage site, interacting together through fluorescence resonance energy transfer (FRET) as described by Matayoshi et al. (Science 247:[…], 1990).
After calculation of Vo and Vi, the inhibition constant (Ki) of the compound is determined using the equation of Henderson: [formula]
where Vo=the enzyme's initial velocity
Vi=the enzyme velocity in the presence of the inhibitory compound,
[I]=inhlibitor concentration, [S]=substrate concentration,
Km=Michaelis-Menten constant and Kiapp=apparent Ki
Graphs are traced and the Ki determined using GraphPad Prism software v. 3.0.

[1] = Anti-protease activity of Ne-amino acid substituted L-lysine derivatives and analogs of formula I, read-out: Ki

Question: With `CCC[C@H](NS(=O)(=O)c1ccccc1)C(=O)NCCCC[C@@H](C(=O)O)N(CC(C)C)S(=O)(=O)c1ccc(C)cc1` [Example 14, Nα-Isobutyl-Nα-(4-methylbenzenesulfonyl)-Nε-[N′α-(benzenesulfonyl)-L-norvalyl]-L-lysine] as the molecule, how does the Ki read?
Answer: 185 nM

Question: For `CCCC[C@H](NS(=O)(=O)c1ccccc1)C(=O)NCCCC[C@@H](C(=O)O)N(CC(C)C)S(=O)(=O)c1ccc(C)cc1` [Example 15, Nα-Isobutyl-Nα-(4-methylbenzenesulfonyl)-Nε-[N′α-(benzenesulfonyl)-L-norleucyl]-L-lysine], which Ki is on record?
Answer: 34 nM

Question: `Cc1ccc(S(=O)(=O)N(CC(C)C)[C@@H](CCCCNC(=O)[C@H](CC(C)C)NS(=O)(=O)c2ccc([N+](=O)[O-])cc2)C(=O)O)cc1` [Example 16, Nα-Isobutyl-Nα-(4-methylbenzenesulfonyl)-Nε-[N′α-(4-nitrobenzenesulfonyl)-L-leucyl]-L-lysine] was tested. Which Ki did it give?
Answer: 34 nM

Question: How did the Ki turn out when `Cc1ccc(S(=O)(=O)N(CC(C)C)[C@@H](CCCCNC(=O)[C@H](Cc2ccccc2)NS(=O)(=O)c2ccc(F)cc2)C(=O)O)cc1` [Example 18, Nα-Isobutyl-Nα-(4-methylbenzenesulfonyl)-Nε-[N′α-(4-fluorobenzenesulfonyl)-L-phenylalanyl]-L-lysine] was run?
Answer: 8.3 nM

Question: How did the Ki turn out when `Cc1ccc(S(=O)(=O)N(CC(C)C)[C@@H](CCCCNC(=O)[C@H](Cc2ccccc2)NS(=O)(=O)c2ccc3ccccc3c2)C(=O)O)cc1` [Example 19, Nα-Isobutyl-Nα-(4-methylbenzenesulfonyl)-Nε-[N′α-(2-naphthylsulfonyl)-L-phenylalanyl]-L-lysine] was run?
Answer: 11 nM

Question: With `Cc1ccc(S(=O)(=O)NCC(=O)NCCCC[C@@H](C(=O)O)N(CC(C)C)S(=O)(=O)c2ccc(C)cc2)cc1` [Example 21, Nα-Isobutyl-Nα-(4-methylbenzenesulfonyl)-Nε-[N′α-(4-methylbenzenesulfonyl)-glycyl]-L-lysine] as the molecule, how does the Ki read?
Answer: 21 nM

Question: With `Cc1ccc(S(=O)(=O)N(CC(C)C)[C@@H](CCCCNC(=O)[C@H](CC(C)C)NS(=O)(=O)c2ccccc2)C(=O)O)cc1` [Example 22, Nα-Isobutyl-Nα-(4-methylbenzenesulfonyl)-Nε-(N′α-benzenesulfonyl-L-leucyl]-L-lysine] as the molecule, how does the Ki read?
Answer: 29 nM

Question: Which Ki does the source give for `Cc1ccc(S(=O)(=O)N(CC(C)C)[C@@H](CCCCNC(=O)[C@H](Cc2ccccc2)NS(=O)(=O)c2ccc(C(F)(F)F)cc2)C(=O)O)cc1` [Example 23, Nα-Isobutyl-Nα-(4-methylbenzenesulfonyl)-Nε-[N′α-(4-trifluoromethylbenzenesulfonyl)-L-phenylalanyl]-L-lysine] here?
Answer: 12 nM

Question: `Cc1ccc(S(=O)(=O)N(CC(C)C)[C@@H](CCCCNC(=O)[C@H](Cc2ccccc2)NS(=O)(=O)c2cccs2)C(=O)O)cc1` [Example 24, Nα-Isobutyl-Nα-(4-methylbenzenesulfonyl)-Nε-[N′α-(2-thiophenesulfonyl)-L-phenylalanyl]-L-lysine] was tested. Which Ki did it give?
Answer: 0.506 nM

Question: For `Cc1ccc(S(=O)(=O)N(CC(C)C)[C@@H](CCCCNC(=O)[C@H](CC(N)=O)NS(=O)(=O)c2ccccc2)C(=O)O)cc1` [Example 25], which Ki is on record?
Answer: 5.3 nM

Question: Which Ki [1] does the source give for `Cc1ccc(S(=O)(=O)N[C@@H](Cc2ccc([N+](=O)[O-])cc2)C(=O)NCCCC[C@@H](C(=O)O)N(CC(C)C)S(=O)(=O)c2ccc(C)cc2)cc1` [Example 26, Nα-Isobutyl-Nα-(4-methylbenzenesulfonyl)-Nε-[N′α-(4-methylbenzenesulfonyl)-L-4-nitrophenylalanyl]-L-lysine] here?
Answer: 2.6 nM

Question: With `Cc1ccc(S(=O)(=O)N[C@H](C(=O)NCCCC[C@@H](C(=O)O)N(CC(C)C)S(=O)(=O)c2ccc(C)cc2)c2ccccc2)cc1` [Example 27, Nα-Isobutyl-Nα-(4-methylbenzenesulfonyl)-Nε-[N′α-(4-methylbenzenesulfonyl)-L-phenylglycyl]-L-lysine] as the molecule, how does the Ki read?
Answer: 11 nM

Question: With `CC(=O)Nc1ccc(S(=O)(=O)N[C@@H](Cc2ccccc2)C(=O)NCCCC[C@@H](C(=O)O)N(CC(C)C)S(=O)(=O)c2ccc([N+](=O)[O-])cc2)cc1` [Example 28, Nα-Isobutyl-Nα-(4-nitrobenzenesulfonyl)-Nε-[N′α-(4-acetamidobenzenesulfonyl)-L-phenylalanyl]-L-lysine] as the molecule, how does the Ki read?
Answer: 9.3 nM

Question: Which Ki does the source give for `CC(C)CN([C@@H](CCCCNC(=O)[C@H](Cc1ccccc1)NS(=O)(=O)c1cccs1)C(=O)O)S(=O)(=O)c1ccc([N+](=O)[O-])cc1` [Example 29, Nα-Isobutyl-Nα-(4-nitrobenzenesulfonyl)-Nε-[N′α-(2-thiophenesulfonyl)-L-phenylalanyl]-L-lysine] here?
Answer: 11 nM

Question: Which Ki does the source give for `CC(=O)N[C@@H](Cc1ccccc1)C(=O)NCCCC[C@@H](C(=O)O)N(CC(C)C)S(=O)(=O)c1ccc(C)cc1` [Example 30, Nα-Isobutyl-Nα-(4-methylbenzenesulfonyl)-Nε-(N′α-acetyl-L-phenylalanyl)-L-lysine] here?
Answer: 0.483 nM

Question: How did the Ki turn out when `Cc1ccc(S(=O)(=O)N(CC(C)C)[C@@H](CCCCNC(=O)[C@H](Cc2ccccc2)NC(=O)OCc2ccccc2)C(=O)O)cc1` [Example 31, Nα-Isobutyl-Nα-(4-methylbenzenesulfonyl)-Nε-(N′α-benzyloxycarbonyl-L-phenylalanyl)-L-lysine] was run?
Answer: 2.3 nM

Question: With `Cc1ccc(S(=O)(=O)N[C@@H](CO)C(=O)NCCCC[C@@H](C(=O)O)N(CC(C)C)S(=O)(=O)c2ccc(C)cc2)cc1` [Example 32, Nα-Isobutyl-Nα-(4-methylbenzenesulfonyl)-Nε-[N′α-(4-methylbenzenesulfonyl)-L-seryl]-L-lysine] as the molecule, how does the Ki read?
Answer: 93 nM

Question: For `Cc1ccc(S(=O)(=O)N[C@@H](CC2CCCCC2)C(=O)NCCCC[C@@H](C(=O)O)N(CC(C)C)S(=O)(=O)c2ccc(C)cc2)cc1` [Example 33, Nα-Isobutyl-Nα-(4-methylbenzenesulfonyl)-Nε-[N′α-(4-methylbenzenesulfonyl)-L-cyclohexylalanyl]-L-lysine], which Ki is on record?
Answer: 3.2 nM

Question: Which Ki does the source give for `Cc1ccc(S(=O)(=O)N[C@@H](CCC(N)=O)C(=O)NCCCC[C@@H](C(=O)O)N(CC(C)C)S(=O)(=O)c2ccc(C)cc2)cc1` [Example 34, Nα-Isobutyl-Nα-(4-methylbenzenesulfonyl)-Nε-[N′α-(4-methylbenzenesulfonyl)-L-glutaminyl]-L-lysine] here?
Answer: 95 nM

Question: For `Cc1ccc(S(=O)(=O)N[C@@H](Cc2cccs2)C(=O)NCCCC[C@@H](C(=O)O)N(CC(C)C)S(=O)(=O)c2ccc(C)cc2)cc1` [Example 35, Nα-Isobutyl-Nα-(4-methylbenzenesulfonyl)-Nε-[N′α-(4-methylbenzenesulfonyl)-L-2-thiophenylalanyl]-L-lysine], which Ki is on record?
Answer: 21 nM

Question: How did the Ki [1] turn out when `Cc1ccc(S(=O)(=O)N(CC(C)C)[C@@H](CCCCNC(=O)[C@H](CO)NC(=O)OCC2c3ccccc3-c3ccccc32)C(=O)O)cc1` [Example 36, Nα-Isobutyl-Nα-(4-methylbenzenesulfonyl)-Nε-[N′α-(9-fluorenylmethoxycarbonyl)-L-seryl]-L-lysine] was run?
Answer: 162 nM

Question: Which Ki does the source give for `Cc1ccc(S(=O)(=O)N(CC(C)C)[C@@H](CCCCNC(=O)[C@H](CC2CCCCC2)NC(=O)OCC2c3ccccc3-c3ccccc32)C(=O)O)cc1` [Example 37, Nα-Isobutyl-Nα-(4-methylbenzenesulfonyl)-Nε-[N′α-(9-fluorenylmethoxycarbonyl)-L-cyclohexylalanyl]-L-lysine] here?
Answer: 28 nM

Question: How did the Ki turn out when `Cc1ccc(S(=O)(=O)N[C@@H](CCC(=O)O)C(=O)NCCCC[C@@H](C(=O)O)N(CC(C)C)S(=O)(=O)c2ccc(C)cc2)cc1` [Example 38, Nα-Isobutyl-Nα-(4-methylbenzenesulfonyl)-Nε-[N′α-(4-methylbenzenesulfonyl)-L-glutamyl]-L-lysine] was run?
Answer: 220 nM

Question: For `Cc1ccc(S(=O)(=O)N[C@@H](CCCCN)C(=O)NCCCC[C@@H](C(=O)O)N(CC(C)C)S(=O)(=O)c2ccc(C)cc2)cc1` [Example 39, Nα-Isobutyl-Nα-(4-methylbenzenesulfonyl)-Nε-[N′α-(4-methylbenzenesulfonyl)-L-lysyl]-L-lysine], which Ki is on record?
Answer: > 300 nM

Question: For `Cc1ccc(S(=O)(=O)N[C@@H](COCc2ccccc2)C(=O)NCCCC[C@@H](C(=O)O)N(CC(C)C)S(=O)(=O)c2ccc(C)cc2)cc1` [Example 40, Nα-Isobutyl-Nα-(4-methylbenzenesulfonyl)-Nε-[N′α-(4-methylbenzenesulfonyl)-O-benzyl-L-seryl]-L-lysine], which Ki is on record?
Answer: 8 nM

Question: Which Ki does the source give for `Cc1ccc(S(=O)(=O)N[C@@H](CC(=O)O)C(=O)NCCCC[C@@H](C(=O)O)N(CC(C)C)S(=O)(=O)c2ccc(C)cc2)cc1` [Example 41, Nα-Isobutyl-Nα-(4-methylbenzenesulfonyl)-Nε-[N′α-(4-methylbenzenesulfonyl)-L-aspartyl]-L-lysine] here?
Answer: 172 nM

Question: For `Cc1ccc(S(=O)(=O)N[C@@H](Cc2cc3ccccc3s2)C(=O)NCCCC[C@@H](C(=O)O)N(CC(C)C)S(=O)(=O)c2ccc(C)cc2)cc1` [Example 42, Nα-Isobutyl-Nα-(4-methylbenzenesulfonyl)-Nε-[N′α-(4-methylbenzenesulfonyl)-L-3-(2-thianaphthyl)-alanyl]-L-lysine], which Ki is on record?
Answer: 256 nM

Question: For `Cc1ccc(S(=O)(=O)N[C@@H](Cc2c[nH]c3ccccc23)C(=O)NCCCC[C@@H](C(=O)O)N(CC(C)C)S(=O)(=O)c2ccc(N)cc2)cc1` [Example 43, Nα-(4-Aminobenzenesulfonyl)-Nα-isobutyl-Nε-[N′α-(4-methylbenzenesulfonyl)-L-tryptophanyl]-L-lysine], which Ki is on record?
Answer: 0.56 nM

Question: For `CC(C)CN([C@@H](CCCCNC(=O)[C@H](Cc1ccccc1)NS(=O)(=O)c1ccccc1)C(=O)O)S(=O)(=O)c1ccc(N)cc1` [Example 44, Nα-(4-Aminobenzenesulfonyl)-Nα-isobutyl-Nε-(N′α-benzenesulfonyl-L-phenylalanyl)-L-lysine], which Ki is on record?
Answer: 3.6 nM
